Patent publication US11279733B2, “Peptide antibiotics” (priority 2017, dated 2022)
≈ marks a conversion by molar mass, not a printed value. Where two headings read alike, the source gives them in different places. Starred links: 1 amine or outer side, 2 acyl side, 3 side chain; linkers in the order of their positions; H or OH if unused. Positions of bridges follow the written chain, without caps; N, C: chain ends. Non-standard residues stand in square brackets, D forms with d. Residues, ends and D or L forms follow the SMILES beside them. *: point of attachment. Decanoyl(3R-OH) = CCCCCCC[C@@H](O)CC(=O)*; Phe(4-NH2) = Nc1ccc(C[C@H](N)C(=O)O)cc1; azaLeu = CC(C)CN(N[*:1])C(=O)[*:2]; dDab = NCC[C@@H](N)C(=O)O; Dab = NCC[C@H](N)C(=O)O

Key:
[1] = tested on: K. pneumoniae GN_106, PmxR; details: GN 106, PmxR
Procedure: (§1) Bacteria were either obtained from American Type Culture Collection (ATCC; Manassas, Va., USA) or independent academic clinical isolate collections, as listed in Table 18 below. Bacteria were cultured in Nutrient broth (NB; Bacto Laboratories, catalogue No. 234000) or Mueller Hinton broth (MHB; Bacto Laboratories, catalogue No. 211443) at 37° C. overnight with shaking (˜180 RPM). A sample of each culture was then diluted 50-fold in fresh MHB and incubated at 37° C. for 2-3 h with shaking (˜180 RPM). Compound stock solutions were prepared as 0.64 mg/mL or 2.56 mg/mL in water. The compounds, at twice the final desired concentration, were serially diluted 2-fold across the wells of 96-well plates (Polystyrene, Corning, catalogue No. 3370). Mid-log phase bacterial cultures (after 2-3 h incubation) were diluted to a final concentration of 1×10^6 colony forming units (CFU)/mL, and 50 μL was added to each well giving a final cell density of 5×10^5 and a compound concentration range of 32 μg/mL to 0.015 μg/mL (128-0.06 μg/mL against P. aeruginosa PA9704).

A. baumannii GN_093 PmxR = details: GN 093 PmxR
Procedure: as §1

[2] = tested on: S. aureus ATCC 25923, MSSA; details: ATCC 25923
Procedure: as §1

[3] = tested on: K. pneumoniae GN_102 PmxR; details: GN 102 PmxR
Procedure: as §1

[4] = tested on: P. aeruginosa GN_043, PmxR
Procedure: as §1

[5] = tested on: P. aeruginosa GN_105, PmxR; details: GN 105, PmxR
Procedure: as §1

K. pneumoniae ATCC 13883 = details: ATCC 13883
Procedure: as §1

[6] = tested on: K. pneumoniae ATCC 700603, MDR; details: ATCC 700603
Procedure: as §1

P. aeruginosa ATCC 27853 = details: ATCC 27853
Procedure: as §1

A. baumannii ATCC 19606 = details: ATCC 19606
Procedure: as §1

E. coli ATCC 25922 = details: ATCC 25922
Procedure: as §1

[7] = tested on: K. pneumoniae ATCC BAA-2146, NDM-1 pos; details: ATCC BAA-2146
Procedure: as §1

Compound | MIC, K. pneumoniae Cl 138-16347-20362, PmxR [1] | MIC, A. baumannii Cl Ptyela 10073 4512:2, PmxR (A. baumannii GN_093 PmxR) | MIC, S. Aureus ATCC 25923, MSSA [2] | MIC, K. pneumoniae Cl Koprana 10065 0661:1, PmxR [3] | MIC, P. aeruginosa FADDI-PA070, PmxR ([4]; Table 5, polymyxin-resistant) | MIC, P. aeruginosa PA9704, PmxR [5] | MIC, K. pneumoniae ATCC 13883 (K. pneumoniae ATCC 13883) | MIC, K. pneumoniae ATCC 700603, MDR [6] | MIC, P. aeruginosa ATCC 27853 (P. aeruginosa ATCC 27853) | MIC, A. baumannii ATCC 19606 (A. baumannii ATCC 19606) | MIC, E. coli ATCC 25922 (E. coli ATCC 25922) | MIC, K. pneumoniae ATCC BAA-2146, NDM-1 pos [7] | MIC S. aureus ATCC 25923, MSSA [2] | MIC K. pneumoniae ATCC 13883 (K. pneumoniae ATCC 13883) | MIC K. pneumoniae ATCC 700603, MDR [6] | MIC P. aeruginosa ATCC 27853 (P. aeruginosa ATCC 27853) | MIC A. baumannii ATCC 19606 (A. baumannii ATCC 19606) | MIC E. coli ATCC 25922 (E. coli ATCC 25922) | MIC K. pneumoniae ATCC BAA-2146, NDM-1 pos [7] | further results
CCCCCCC[C@@H](O)CC(=O)N[C@H](CCN)C(=O)N[C@H]1CCNC(=O)[C@H](CC(C)C)NC(=O)[C@H](CCN)NC(=O)[C@H](CCN)NC(=O)[C@H](CC(C)C)NC(=O)[C@@H](Cc2ccccc2)NC(=O)[C@H](CCCNC(=N)N)NC1=O [compound 8634, 3(R)OH-nC9CO-D-Dab-cyc[L-Dab-L-Arg-D-Phe-L-Leu-L-Dab-L-Dab-L-Leu]] ({Decanoyl(3R-OH)}-[dDab][Dab]R[dF]L[Dab][Dab]L; lactam 2-C) | 8 µg/mL (≈ 7.27 µM) | 32 µg/mL (≈ 29.1 µM) | 16 µg/mL (≈ 14.5 µM) | 4 µg/mL (≈ 3.63 µM) | 2 µg/mL (≈ 1.82 µM) | 4 µg/mL (≈ 3.63 µM) | 8 µg/mL (≈ 7.27 µM) | 4 µg/mL (≈ 3.63 µM) | 4 µg/mL (≈ 3.63 µM) | 16 µg/mL (≈ 14.5 µM) | 8 µg/mL (≈ 7.27 µM) | 8 µg/mL (≈ 7.27 µM) | – | – | – | – | – | – | – | –
CCCCCCC[C@@H](O)CC(=O)N[C@H](CCN)C(=O)N[C@H]1CCNC(=O)[C@H](CC(C)C)NC(=O)[C@H](CCN)NC(=O)[C@H](Cc2ccc(N)cc2)NC(=O)[C@H](CC(C)C)NC(=O)[C@@H](Cc2ccccc2)NC(=O)[C@H](CCN)NC1=O [compound 8642, 3(R)OH-nC9CO-D-Dab-cyc[L-Dab-L-DAB-D-Phe-L-Leu-L-4NH2Phe-L-Dab-L-Leu]] ({Decanoyl(3R-OH)}-[dDab][Dab][Dab][dF]L[Phe(4-NH2)][Dab]L; lactam 2-C) | 4 µg/mL (≈ 3.62 µM) | 16 µg/mL (≈ 14.5 µM) | 8 µg/mL (≈ 7.23 µM) | 2 µg/mL (≈ 1.81 µM) | 8 µg/mL (≈ 7.23 µM) | 8 µg/mL (≈ 7.23 µM) | 4 µg/mL (≈ 3.62 µM) | 4 µg/mL (≈ 3.62 µM) | 8 µg/mL (≈ 7.23 µM) | 8 µg/mL (≈ 7.23 µM) | 4 µg/mL (≈ 3.62 µM) | 4 µg/mL (≈ 3.62 µM) | – | – | – | – | – | – | – | –
CCCCCCC[C@@H](O)CC(=O)N[C@H](CCN)C(=O)N[C@H]1CCNC(=O)[C@H](CC(C)C)NC(=O)[C@H](Cc2ccc(N)cc2)NC(=O)[C@H](CCN)NC(=O)[C@H](CC(C)C)NC(=O)[C@@H](Cc2ccccc2)NC(=O)[C@H](CCN)NC1=O [compound 8644, 3(R)OH-nC9CO-D-Dab-cyc[L-Dab-L-DAB-D-Phe-L-Leu-L-Dab-L-4NH2Phe-L-Leu]] ({Decanoyl(3R-OH)}-[dDab][Dab][Dab][dF]L[Dab][Phe(4-NH2)]L; lactam 2-C) | – | – | – | – | – | – | – | – | – | – | – | – | 32 µg/mL (≈ 28.9 µM) | 8 µg/mL (≈ 7.23 µM) | 8 µg/mL (≈ 7.23 µM) | 8 µg/mL (≈ 7.23 µM) | 16 µg/mL (≈ 14.5 µM) | 16 µg/mL (≈ 14.5 µM) | 4 µg/mL (≈ 3.62 µM) | MIC K. pneumoniae GN_106, PmxR [1]: 8 µg/mL (≈ 7.23 µM); MIC A. baumannii GN_093 PmxR (A. baumannii GN_093 PmxR): >32 µg/mL; MIC K. pneumoniae GN_102 PmxR [3]: 2 µg/mL (≈ 1.81 µM); MIC P. aeruginosa GN_043, PmxR ([4]; polymyxin-resistant): 8 µg/mL (≈ 7.23 µM); MIC P. aeruginosa GN_105, PmxR [5]: 8 µg/mL (≈ 7.23 µM)
CCCCCCC[C@@H](O)CC(=O)N[C@H](CCN)C(=O)N[C@H]1CCNC(=O)[C@H](CC(C)C)NC(=O)[C@H](CCN)NC(=O)[C@H](CCN)NC(=O)N(CC(C)C)NC(=O)[C@@H](Cc2ccccc2)NC(=O)[C@H](CCN)NC1=O [compound 8803, 3(R)OH-nC9CO-D-Dab-cyc[L-Dab-L-DAB-D-Phe-azaLeu-L-Dab-L-Dab-L-Leu]] ({Decanoyl(3R-OH)}-[dDab][Dab][Dab][dF][azaLeu][Dab][Dab]L; lactam 2-C) | – | – | – | – | – | – | – | – | – | – | – | – | 16 µg/mL (≈ 15.3 µM) | 8 µg/mL (≈ 7.65 µM) | 8 µg/mL (≈ 7.65 µM) | 4 µg/mL (≈ 3.83 µM) | 8 µg/mL (≈ 7.65 µM) | 2 µg/mL (≈ 1.91 µM) | 8 µg/mL (≈ 7.65 µM) | MIC K. pneumoniae Cl 183-16357-20352, PmxR [1]: 4 µg/mL (≈ 3.83 µM); MIC A. baumannii Cl Ptyela 10073 4512:2, PmxR (A. baumannii GN_093 PmxR): 32 µg/mL (≈ 30.6 µM); MIC K. pneumoniae Cl Koprana 10065 0661:1 PmxR [3]: 2 µg/mL (≈ 1.91 µM); MIC, P. aeruginosa FADDI-PA070, PmxR ([4]; strain name as in Table 11): 1 µg/mL (≈ 0.957 µM); MIC P. aeruginosa PA9704, PmxR [5]: 2 µg/mL (≈ 1.91 µM)
